Test results as given in PMC5773487, “Harnessing insulin- and leptin-induced oxidation of PTP1B for therapeutic development” (Nature Communications, 2018).
“Also recorded” adds a separate entry of the source.

T1: reduced PTP1B (Homo sapiens, UniProt P18031)
T1 construct: Purified PTP1B (1–321) (100 nM) was mixed with increasing concentrations of H2O2; 6xHis (C); made in house; host or cells: E. coli BL21 (DE3)-RIL
T1 sequence (P18031 1-321): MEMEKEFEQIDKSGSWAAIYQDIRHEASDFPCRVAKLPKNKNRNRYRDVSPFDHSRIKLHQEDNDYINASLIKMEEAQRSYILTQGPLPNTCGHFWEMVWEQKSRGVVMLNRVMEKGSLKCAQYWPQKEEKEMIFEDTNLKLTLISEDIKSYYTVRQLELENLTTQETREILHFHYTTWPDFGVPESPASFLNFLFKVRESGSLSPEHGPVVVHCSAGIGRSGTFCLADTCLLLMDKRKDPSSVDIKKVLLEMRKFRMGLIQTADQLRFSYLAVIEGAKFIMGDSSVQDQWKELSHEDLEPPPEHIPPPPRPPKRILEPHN

T2: PTP1B-OX : TRX1 trapping mutant complex (Homo sapiens, UniProt P18031)
T2 sequence (P18031 1-321 limits assumed): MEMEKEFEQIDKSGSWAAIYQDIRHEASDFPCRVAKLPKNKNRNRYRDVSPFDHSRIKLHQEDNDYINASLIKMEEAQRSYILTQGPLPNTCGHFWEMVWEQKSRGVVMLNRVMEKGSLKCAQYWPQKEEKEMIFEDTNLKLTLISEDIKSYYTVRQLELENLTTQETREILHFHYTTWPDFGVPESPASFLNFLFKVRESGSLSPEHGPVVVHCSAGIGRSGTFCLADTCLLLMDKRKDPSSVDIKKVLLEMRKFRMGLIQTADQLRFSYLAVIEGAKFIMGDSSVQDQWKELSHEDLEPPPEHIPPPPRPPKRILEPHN

T3: PTP1B-OX (Homo sapiens, UniProt P18031)
T3 construct: Purified PTP1B (1–321) (100 nM) was mixed with increasing concentrations of H2O2; 6xHis (C); made in house; host or cells: E. coli BL21 (DE3)-RIL
T3 sequence (P18031 1-321): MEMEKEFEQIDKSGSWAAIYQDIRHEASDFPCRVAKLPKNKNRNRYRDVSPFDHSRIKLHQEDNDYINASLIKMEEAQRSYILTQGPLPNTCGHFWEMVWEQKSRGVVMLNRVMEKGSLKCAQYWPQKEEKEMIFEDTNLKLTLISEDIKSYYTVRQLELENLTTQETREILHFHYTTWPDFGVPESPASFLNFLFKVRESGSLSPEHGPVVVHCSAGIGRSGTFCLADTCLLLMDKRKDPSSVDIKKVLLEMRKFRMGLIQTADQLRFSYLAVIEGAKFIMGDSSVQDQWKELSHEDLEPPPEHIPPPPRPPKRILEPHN


Tests used:
reduced PTP1B = target: T1, reduced PTP1B; assay: phosphatase activity of reduced PTP1B, DiFMUP substrate; assay type: biochemical
Description: Fig. 4 Identification and characterization of small molecules that mimic the effect of scFv45. a Reversibly oxidized PTP1B (PTP1B-OX) was generated by incubation with H2O2 in vitro, desalted, then assayed (20 nM) in the presence and absence of individual members of the LOPAC library. In the right panel, each dot represents an activity measurement. […] Data are representative of at least two independent experiments (n = 2). b Increasing concentration of sanguinarine was tested against reduced (circle) and oxidized (square) forms of PTP1B, using DiFMUP as substrate. c Increasing concentration of levamisole was tested against reduced (circle) and oxidized (square) PTP1B, using DiFMUP as substrate. d PTP1B-OX (200 nM) was incubated with sanguinarine (25 µM) for 5 min and the complex was diluted 100-fold and the activity was monitored for 120 min continuously. e PTP1B-OX (200 nM) was incubated with levamisole (40 µM) for 5 min and the complex was diluted 100-fold and the activity was monitored for 120 min continuously. f Increasing concentration of chelerythrine, an analog of sanguinarine, was tested against reduced (circle) and oxidized (square) forms of PTP1B, using DiFMUP as substrate. […] Individual data points represent the mean obtained from three separate experiments (n = 3; b–g)
Purified PTP1B (1–321) (100 nM) was mixed with increasing concentrations of H2O2 (0.05–100 mM) in phosphatase assay buffer (50 mM HEPES, pH 7.0, 100 mM NaCl, 0.1% BSA) at room temperature for 5 min. From this reaction mixture PTP1B (10 nM) was used to monitor phosphatase activity using DiFMUP as the substrate, with or without 5 mM TCEP. Activity of each sample was compared to that of the untreated PTP1B in the presence of 5 mM TCEP.

[1] = system: high fat diet-fed C57Bl6/J mice; assay: body weight, glucose and insulin tolerance tests in diet-fed mice; assay type: in vivo; conditions: for glucose tolerance (GTT) / insulin sensitivity (ITT): HFD fed 14-week-old male mice; for glucose tolerance (GTT): D-glucose 2 mg g−1; for insulin sensitivity (ITT): insulin 0.75 mU g−1
Description: Animal experiments were performed according to protocols approved by the Institutional Animal Use and Care Committee of Cold Spring Harbor laboratory. Ten week-old male C57bl6/J mice fed chow diet or high fat diet (D12492) were acclimatized for 10 days under standard conditions before experiments. Mice were intraperitoneally (i.p.) injected once daily with vehicle, 3 mg kg^−1 of chelerythrine or 3 mg kg^−1 of protopine for 30 days. Mice were killed after 6 h of fasting, and serum samples were collected to measure the metabolic parameters and tissue samples were collected for studying changes in signaling. No animals were excluded from the analysis.
Glucose in tail blood was measured using a glucometer (One-Touch Basic; Lifescan, CA). For glucose tolerance tests (GTTs), mice were fasted for 10 h and then injected with 20% D-glucose (2 mg g^−1 body weight) and the blood glucose was monitored immediately before and at 15, 30, 60, and 120 min following the injection. For insulin tolerance tests (ITTs), 4 h fasted animals were given insulin (0.75 mU g^−1) and blood glucose was measured immediately before and at 30, 60, and 120 min post-injection. Statistical analysis was performed using ANOVA for both GTT and ITT.

[2] = target: T2, PTP1B-OX : TRX1 trapping mutant complex; assay: in vitro substrate trapping of PTP1B by thioredoxin trapping mutant; assay type: biochemical; conditions: chelerythrine 5 μM
Excerpt: Thioredoxin (TRX), which functions to reduce oxidized cysteines in target proteins, contains an essential CXXC motif, in which the first cysteine forms a mixed disulfide intermediate with an oxidized cysteine in the target protein. The second cysteine then serves a “resolving” function—it forms a disulfide bond with the first cysteine in the CXXC motif, with the resulting transfer of electrons leading to reduction of the target protein. We utilized an assay using a “trapping mutant” form of thioredoxin in which the second cysteine is mutated to serine, which stabilizes the mixed disulfide intermediate with the target substrate.
Recombinant variants of N-terminally His-tagged human TRX1 (0.1 mg, WT, and trapping mutant, C35S) were reduced with 20 mM DTT in 1 mL PBS on ice for 30 min, then desalted on a Sephadex PD-10 column. Ten μg each of TRX1-WT and TRX1-C35S proteins was used in the trapping experiment. PTP1B (40 μg ml^−1) was incubated with H2O2 (0, 0.1 and 0.5 mM) for 10 min at room temperature and excess H2O2 was removed by desalting. Reduced and oxidized forms of PTP1B (20 μg) were incubated with WT or trapping mutant TRX1 for 20 min at room temperature in the absence and presence of chelerythrine (5 μM) in 1 mL PBS. Ni-NTA beads were added and incubated for 1 h at 4 °C. […]

PTP1B-OX = target: T3, PTP1B-OX; assay: reduction and reactivation of reversibly oxidized PTP1B by TCEP, DiFMUP substrate; assay type: biochemical
reduced form of PTP1B = system: reduced form of PTP1B; parameters: method as in PMID 21962515; conditions: cited from earlier work
TCPTP = system: TCPTP; parameters: method as in PMID 21962515; conditions: oxidized or reduced states; cited from earlier work

Molecule	inhibition of the reduced form of PTP1B (reduced PTP1B)	glucose tolerance (GTT) [1]	insulin sensitivity (ITT) [1]	change in body weight, chow diet ([1]; chow diet-fed mice, 3 mg kg−1 i.p. once daily)	decrease in body weight ([1]; high fat diet-fed mice, 3 mg kg−1 i.p. once daily)	complex formation between PTP1B-OX and thioredoxin substrate trapping mutant [2]	reversibility of PTP1B-OX inhibition (PTP1B-OX; complex diluted 100-fold, activity monitored 120 min)	weight loss in high fat diet-fed mice ([1]; 3 mg kg−1 i.p. once daily, in words)	Ki (PTP1B-OX; intrabodies, phosphatase activity, read-out: Ki against oxidized PTP1B-wt) [nM]	binding to the reduced form of PTP1B (reduced form of PTP1B)	binding to TCPTP (TCPTP)
COc1ccc2c(c[n+](C)c3c4cc5c(cc4ccc23)OCO5)c1OC [chelerythrine]	no apparent inhibition; also recorded: did not inhibit	improved	improved	no significant change	~ 3%	did not prevent complex formation	reversible				
CN1CCc2cc3c(cc2C(=O)Cc2ccc4c(c2C1)OCO4)OCO3 [protopine]	did not inhibit; also recorded: ineffective	did not improve	did not improve					not observed			
scFv45: recombinant conformation-sensor single-chain variable fragment antibody recognizing oxidized PTP1B (antibody, V domains shown) VH: TVTLDESGGGLQAPGGALSLVCKASGFTFSSYDMGWIRQAPGKGLEYVAGITDNGRYASYGSAVDGRATISRDNGQSSVRLQLNNLRAEDTGTYYCARDDGSGWTGNSIDAWGHGTEVIVSE VL: ALTQPSSVSANPGGTVKITCSGSSSAYGYGWYQQKSPGSAPVTVIYNNNKRPSNIPSRFSGSKSGSTGTLTITGVQAEDEAVYFCGSEDSSTDAIFGAGTTLTVL									10	did not bind	does not bind
